One data set concerns the target T1, GTR2/NPF2.11 (Arabidopsis thaliana, UniProt Q9LV10).
T1 construct: forward primer starts ATGGAGAGAAAGCCTCTTG
T1 sequence (Q9LV10 1-616): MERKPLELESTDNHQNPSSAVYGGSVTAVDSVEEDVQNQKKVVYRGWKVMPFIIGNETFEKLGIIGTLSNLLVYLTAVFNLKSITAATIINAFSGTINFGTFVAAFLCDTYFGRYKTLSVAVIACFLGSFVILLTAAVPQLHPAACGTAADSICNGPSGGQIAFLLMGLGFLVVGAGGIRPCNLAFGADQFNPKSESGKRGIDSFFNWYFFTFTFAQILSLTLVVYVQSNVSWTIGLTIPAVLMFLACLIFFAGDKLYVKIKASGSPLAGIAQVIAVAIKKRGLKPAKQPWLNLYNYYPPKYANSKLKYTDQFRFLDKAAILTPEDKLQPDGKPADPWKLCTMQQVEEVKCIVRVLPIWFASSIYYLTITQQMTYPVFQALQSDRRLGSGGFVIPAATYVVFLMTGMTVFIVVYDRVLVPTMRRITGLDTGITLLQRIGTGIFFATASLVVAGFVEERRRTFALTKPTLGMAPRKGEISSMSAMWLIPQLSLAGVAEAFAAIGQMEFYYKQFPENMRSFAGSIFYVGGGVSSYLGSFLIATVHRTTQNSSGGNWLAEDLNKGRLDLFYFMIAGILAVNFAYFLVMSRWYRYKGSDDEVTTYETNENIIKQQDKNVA
As to the kind of experiment: uptake into Xenopus oocytes, UPLC/TOFMS. Particulars: pH 5, 24 h uptake, kulori-based buffer. The data set is classed as cell-based.

Substrate in data set [1]: C=C1C[C@]23C[C@@]1(O)CC[C@H]2[C@@]12C=C[C@H](O)[C@@](C)(C(=O)O1)[C@H]2[C@@H]3C(=O)O
As to the kind of experiment: uptake into Xenopus oocytes, UPLC/TOFMS. Particulars: pH 5.0, 17 °C, 24 h uptake, kulori-based buffer, 1-2,000 μM GA3. It counts as cell-based, Arabidopsis thaliana.

With `C=C1C[C@]23C[C@@]1(O)CC[C@H]2[C@@]12C=C[C@H](O)[C@@](C)(C(=O)O1)[C@H]2[C@@H]3C(=O)O` [GA3], at GTR2/NPF2.11, the “uptake into Xenopus oocytes, UPLC/TOFMS” value was “GTR2, a close homologue of GTR1, also transported GA3 into oocytes”.

B1: GTR1/NPF2.10 (Arabidopsis thaliana) (protein)
chain: MKSRVILNHRDRRDKNHNNNNTNHYTQVDTMERKPLEVEPSTTTTNTDVVDSFEEEQRKIVYRGWKVMPFIIGNETFEKLGIIGTLSNLLVYLTSVFNLKSYTAATIINAFSGTINFGTFIAAFLCDTYFGRYKTLSVAVIACFLGSFVILLTAAIPSLHPVACGNKISCEGPSVGQILFLLMGLGFLVVGAGGIRPCNLAFGADQFNPKSESGKKGINSFFNWYFFTFTFAQIISLTAVVYIQSNVSWTIGLIIPVALMFLACVIFFAGDRLYVKVKASGSPLAGIARVIAAAIKKRGLKPVKQPWVNLYNHIPSNYANTTLKYTDQFRFLDKAAIMTPEEKLNSDGTASDPWKLCTLQQVEEVKCIVRVIPIWFASTIYYLAITIQMTYPVFQALQSDRRLGSGGFRIPAATYVVFLMTGMTVFIIFYDRVLVPSLRRVTGLETGISLLQRIGAGFTFAIMSLLVSGFIEERRRNFALTKPTLGMAPRTGEISSMSALWLIPQLTLAGIAEAFAAIGQMEFYYKQFPENMKSFAGSIFYVGAGVSSYLASFLISTVHRTTAHSPSGNWLAEDLNKAKLDYFYFMLTGLMVVNMAYFLLMARWYRYKGGNDEDITEIETNEEETKQQQLQDKNSV
Turning to B1, the Km in data set [1] amounted to 301.25 ± 225.46 µM.

The values are drawn from paper PMC4347201, “The jasmonate-responsive GTR1 transporter is required for gibberellin-mediated stamen development in Arabidopsis” (Nature Communications, 2015).
